The test system of one assay is MCF7. In words: Cancer cell line panel, MCF7 (breast). Type of assay: cell-based. Here is the method:
(§1) Relative drug sensitivities (Resistance Factor) and IC50 values were determined by a modified MTT assay (see, e.g., Mosmann, 1983; Plumb et al., 1989), as described below: • (1) Trypsinise a sub-confluent monolayer culture and collect cells in growth medium containing serum. Centrifuge the suspension (200 g, 5 minutes) to pellet cells, re-suspend in growth medium, and count cells. Dilute cells to a density of 5×10^3 cells/mL allowing 60 mL of cell suspension for 3 microtitre plates. Transfer cell suspension to a 10 cm petri dish, and with a multichannel pipette add 200 μL to each well of the central 10 columns of a flat bottomed 96-well plate (80 wells per plate) starting with column 2 and ending with column 11. Add 200 μL of growth medium to the 8 wells in columns 1 and 12. […] Glycine buffer is added (25 μL per well) to all wells containing DMSO. • (8) Absorbance is recorded at 570 nm with the wells in column 1, which contained medium and MTT but no cells used as a blank. • (9) A graph is plotted of absorbance (y-axis) against drug concentration (x-axis). The mean absorbance reading from the wells in columns 2 and 11 is used as the control absorbance and the IC50 concentration is determined as the drug concentration required to reduce the absorbance to half that of the control. IC10 or IC90 values can be determined in the same manner. […]

Another assay relates to H125. Briefly: Cancer cell line panel, H125 (NSCLC). Format: cell-based. The protocol: as §1
In the next assay the test system is PC3. In words: Cancer cell line panel, PC3 (prostate). Format: cell-based. Here is the method: as §1
A further assay deals with BE. In words: Modified MTT assay, colon panel BE. Format: cell-based. The protocol: as §1
For orientation: Formazan colour is commonly taken as a measure of viable cells.

A further assay has as its system COLO320DM. In words: Modified MTT assay, colon panel COLO320DM. Format: cell-based. Here is the method: as §1
For the next assay, the system named is SKMES. Briefly: Cancer cell line panel, SKMES (NSCLC). Type of assay: cell-based. The protocol:
as §1

The subject of a further assay is T47D. In words: Cancer cell line panel, T47D (breast). Format: cell-based. The protocol:
as §1

For a further assay, the system named is WIL. In words: Cancer cell line panel, WIL (NSCLC). Type of assay: cell-based. The protocol: as §1
A further assay deals with A2780/mcp1. In words: Modified MTT assay, A2780/mcp1 (cisplatin resistant, MMR deficient). Type of assay: cell-based, human. The settings on record: 24 hour drug exposure; for IC50: MTT; for A2780/mcp1 RF (Resistance Factor): fold difference in resistance from parental A2780. Here is the method:
(§2) Relative drug sensitivities (Resistance Factor) and IC50 values were determined by a modified MTT assay (see, e.g., Mosmann, 1983; Plumb et al., 1989), as described below: • (1) Trypsinise a sub-confluent monolayer culture and collect cells in growth medium containing serum. Centrifuge the suspension (200 g, 5 minutes) to pellet cells, re-suspend in growth medium, and count cells. Dilute cells to a density of 5×10^3 cells/mL allowing 60 mL of cell suspension for 3 microtitre plates. Transfer cell suspension to a 10 cm petri dish, and with a multichannel pipette add 200 μL to each well of the central 10 columns of a flat bottomed 96-well plate (80 wells per plate) starting with column 2 and ending with column 11. Add 200 μL of growth medium to the 8 wells in columns 1 and 12. Put the plates in a plastic box and incubate in a humidified atmosphere at 37° C. for 2-3 days so that cells are in the exponential phase of growth for drug addition. • (2) Prepare a serial 5-fold dilution of the cytotoxic drug in growth medium to give 8 concentrations. Pipette 6 mL of growth medium in to each of 7 universal containers (30 mL). Prepare 10 mL of the highest concentration of the drug and transfer 1.5 mL of this solution to the first universal container. Mix and then transfer 1.5 mL to the next universal container. Continue until the seventh universal container is reached. The concentrations should be chosen so that the highest concentration kills most of the cells and the lowest kills none of the cells. Normally, three plates are used for each drug to give triplicate determinations within one experiment. • (3) The medium is removed from all the wells in columns 2 to 11. This can be achieved with a hypodermic needle attached to a suction line. Cells in the 8 wells in columns 2 and 11 are fed with 200 μL of fresh growth medium. The drug solutions are transferred to 10 cm petri dishes and 200 μL added to all 8 wells of a column. For ease of analysis arrange the drug solutions in order so that the highest is in column 3 down to the lowest in column 10. Plates are returned to the plastic box and incubated for 24 hours. • (4) At the end of the drug exposure period, the medium is removed from all wells containing cells and the cells are fed with 200 μL of fresh medium. • (5) The plates are fed daily for two more days. • (6) The plates are fed with 200 μL of fresh medium and 50 μL of the MTT solution (5 mg/mL in PBS) is added to all wells in columns 1 to 11. Plates are wrapped in aluminium foil and incubated for 4 hours in a humidified atmosphere at 37° C. • (7) The medium and MTT are then removed from the wells and the purple MTT-formazan crystals dissolved by addition of 200 μL of DMSO to all wells in columns 1 to 11. Glycine buffer is added (25 μL per well) to all wells containing DMSO. • (8) Absorbance is recorded at 570 nm with the wells in column 1, which contained medium and MTT but no cells used as a blank. • (9) A graph is plotted of absorbance (y-axis) against drug concentration (x-axis). The mean absorbance reading from the wells in columns 2 and 11 is used as the control absorbance and the IC50 concentration is determined as the drug concentration required to reduce the absorbance to half that of the control. IC10 or IC90 values can be determined in the same manner.
(§3) A2780/cp70 and A2780/mcp1 have lost expression of MLH1, have lost MMR activity, and have microsatellite instability compared to A2780. The CpG island at the MLH1 gene is methylated in A2780/cp70 and A2780/mcp1, but not A2780.
(§4) IC50 values (μM) for A2780, A2780/cp70, and A2780/mcp1 and Resistance Factors (RF) (the fold difference in resistance from parental A2780) were determined based on the MTT assay described above for several compounds of the present invention (including, e.g., MMR201).

Another assay concerns HS852. In words: Cancer cell line panel, HS852 (melanoma). Format: cell-based. The protocol:
as §1

For a further assay, the system named is OVCAR5. Briefly: Cancer cell line panel, OVCAR5 (ovary). Type of assay: cell-based. The protocol:
as §1

Another assay concerns A375. Briefly: Cancer cell line panel, A375 (melanoma). Format: cell-based. The protocol:
as §1

The next assay deals with C8161. In words: Cancer cell line panel, C8161 (melanoma). Type of assay: cell-based. The protocol: as §1
A further assay relates to RKO (MLH1). Briefly: Modified MTT assay, colon panel RKO. Type of assay: cell-based. The protocol:
as §1

In the next assay the test system is DLD1 (MSH6). Briefly: Modified MTT assay, colon panel DLD1. Format: cell-based. Here is the method: as §1
The subject of the next assay is A2780. In words: Modified MTT assay, A2780 (parental, MMR proficient). Format: cell-based, human. Here is the method:
as §2, §3, §4

Another assay has as its system HCT15 (MSH6). In words: Modified MTT assay, colon panel HCT15. Type of assay: cell-based. The protocol:
as §1

Each structure is given as a SMILES string. Several values for one entry are separate records, joined by “and”; a condition that tells them apart may be missing. Equal entries are not always repeated. Where two headings read alike, the source gives them in different places.

The values that follow come from patent US20090247579A1, “2-[3H-THIAZOL-2-YLIDINEMETHYL]PYRIDINES AND RELATED COMPOUNDS AND THEIR USE” (CANCER RESEARCH TECHNOLOGY LIMITED, priority 2006, published 2009).

Take `CC[n+]1c(/C=C2\Sc3oc4ccccc4c3N2C)ccc2cc(C)ccc21.[I-]` [MMR201]: the IC50 stood at 870 ± 54.8 nM in the assay with MCF7 (Homo sapiens, read-out: MMR201); 130 ± 15 nM in the assay with H125 (Homo sapiens, NCI-H125, read-out: MMR201); 531 ± 50.3 nM in the assay on PC3 (Homo sapiens, PC-3, read-out: MMR201); 125 ± 17.3 nM in the assay on BE (MMR status unknown, p53 ?, read-out: MMR201 IC50); 594 ± 28.5 nM in the assay with COLO320DM (Homo sapiens, COLO 320DM, MMR proficient, p53 mut, read-out: MMR201 IC50); 398 ± 61.9 nM in the assay on SKMES (read-out: MMR201). Further, the IC50 with T47D (Homo sapiens, read-out: MMR201) was found to be 319 ± 26 nM; in the assay with WIL (read-out: MMR201), 153 ± 13.7 nM; in the assay on A2780/mcp1 (Homo sapiens, A2780/mcp1) it was 14 ± 1 nM; in the assay with HS852 (read-out: MMR201), 75.3 ± 7.1 nM; in the assay on OVCAR5 (Homo sapiens, OVCAR-5, read-out: MMR201), 699 ± 54.6 nM; in the assay with A375 (Homo sapiens, A-375, read-out: MMR201), 118 ± 17.7 nM. The IC50 in the assay with C8161 (Homo sapiens, read-out: MMR201) was 254.2 ± 0.4 nM; in the assay on RKO (MLH1) (MMR deficient, read-out: MMR201 IC50) it was 27.2 ± 0.7 nM; in the assay with DLD1 (MSH6) (Homo sapiens, DLD-1, MMR deficient, p53 mut, read-out: MMR201 IC50) it was 186 ± 8.3 nM; in the assay with A2780 (Homo sapiens, A2780, 24 hour drug exposure), 58 ± 5 nM; with HCT15 (MSH6) (Homo sapiens, HCT-15, MMR deficient, p53 wt/mut, read-out: MMR201 IC50), 584 ± 55.1 nM. Further, the “A2780/mcp1 RF (Resistance Factor)” value with A2780/mcp1 was 0.24.

On to `N.N.[Cl][Pt][Cl]` [Cisplatin, reference compound], for which the IC50 with MCF7 (read-out: Cisplatin) worked out at 1780 ± 170 nM; in the assay on H125 (read-out: Cisplatin), 3690 ± 430 nM; in the assay on PC3 (read-out: Cisplatin), 2270 ± 270 nM; in the assay on BE (read-out: Cisplatin IC50, MMR status unknown, p53 ?), 8670 ± 1420 nM; with COLO320DM (read-out: Cisplatin IC50, MMR proficient, p53 mut), 2900 ± 290 nM; with SKMES (read-out: Cisplatin), 5160 ± 80 nM. The IC50 in the assay with T47D (read-out: Cisplatin) was 5420 ± 220 nM; with WIL (read-out: Cisplatin), 3940 ± 220 nM; in the assay on A2780/mcp1, 547 nM and 672 nM; with HS852 (read-out: Cisplatin), 1600 ± 90 nM; with OVCAR5 (read-out: Cisplatin) it was 1780 ± 100 nM; in the assay with A375 (read-out: Cisplatin), 613 ± 51 nM. For the same compound, the IC50 in the assay on C8161 (read-out: Cisplatin) was 3460 ± 160 nM; in the assay with RKO (MLH1) (read-out: Cisplatin IC50, MMR deficient), 4010 ± 100 nM; in the assay on DLD1 (MSH6) (read-out: Cisplatin IC50, MMR deficient, p53 mut), 1670 ± 30 nM; in the assay with A2780 (24 hour drug exposure), 215 nM and 244 nM; with HCT15 (MSH6) (read-out: Cisplatin IC50, MMR deficient, p53 wt/mut), 2920 ± 20 nM. In addition, the “A2780/mcp1 RF (Resistance Factor)” value with A2780/mcp1 is 2.5 and 2.8.
